Measured values taken from patent US20240398771A1, “TREATMENT OF SCLERODERMA AND RAYNAUD'S SYNDROME” (Aisa Pharma, Inc., priority 2023, published 2024).

System: participants with SSc-RP
Assay: Average duration of weekly symptomatic RP attacks (minutes)
Type: in vivo, human
Settings: ITT Part A
Excerpt: The relevant metrics measured by this tool daily are: • Study medication • SSc-RP symptoms (Reporting an attack including duration of attack) • Severity of the attack considering all symptoms of the attack e.g. tingling, numbness, pain, color changes (VAS 0-10 cm scale) • Participant's location at the time of the attack (inside home/outside home) • Selecting symptoms experienced during the attack (tingling, numbness, pain, color changes, other) • Pain rating during the attack (11-point Likert scale) • The RCS based on how much difficulty participants had with Raynaud's today, how many attacks the participant had, and how long they lasted. Participants will also be asked to consider how much pain, numbness, or other symptoms the Raynaud's caused in fingers (including painful sores), and how much the Raynaud's alone affected the use of hands today (VAS 0-10 cm scale).
The absolute change in average duration of weekly RP attacks from baseline to the end of each dosing period was and will be a secondary outcome variable. The sponsor-developed participant-informed diary was and will be used to record data. Average duration of weekly RP attacks is defined as the total duration of RP attacks divided by total number of RP attacks within the last 7 days of each dosing period. Total duration of RP attacks during the last 7 days of screening period divided by the total number of RP attacks will be used as baseline for the analysis of all periods. The variable will be calculated similar to frequency data as before.

[1] = Excluding Outliers, Baseline RCS subgroup 1 (Table B-4, stratum not given), last 7 days of dosing period, listed as Cilnidipine 10 mg
[2] = Excluding Outliers, Baseline RCS subgroup 1 (Table B-4, stratum not given), last 7 days of dosing period, listed as Cilnidipine 20 mg
[3] = Excluding Outliers, Baseline RCS subgroup 1 (Table B-4, stratum not given), last 7 days of dosing period, listed as Pooled Cilnidipine
[4] = Excluding Outliers, Baseline RCS subgroup 1 (Table B-4, stratum not given), last 7 days of screening period, listed as Cilnidipine 10 mg
[5] = Excluding Outliers, Baseline RCS subgroup 1 (Table B-4, stratum not given), last 7 days of screening period, listed as Cilnidipine 20 mg
[6] = Excluding Outliers, Baseline RCS subgroup 1 (Table B-4, stratum not given), last 7 days of screening period, listed as Pooled Cilnidipine
[7] = Baseline RCS subgroup 1 (Table B-3, stratum not given), last 7 days of dosing period, listed as Cilnidipine 10 mg

`COCCOC(=O)C1=C(C)NC(C)=C(C(=O)OC/C=C/c2ccccc2)C1c1cccc([N+](=O)[O-])c1` (stereo not shown) [Cilnidipine, 1,4-dihydro-2,6-dimethyl,4-(3-nitrophenyl)-3,5-pyridinedicarboxylic acid 2-methoxyethyl (2 E)-3-phenyl-2-propenyl ester] was tested, and the “Average Duration of weekly symptomatic RP attacks, Max” value [1] was 31.6, 31.6 minutes, the “Average Duration of weekly symptomatic RP attacks, Mean” value [1] was 31.64 min and the “Average Duration of weekly symptomatic RP attacks, Min” value [1] was 31.6, 31.6 minutes. For the same compound, the “Average Duration of weekly symptomatic RP attacks, Q3” value [1] was 31.64, 31.64 minutes, the “Average duration of weekly symptomatic RP attacks, Change from Baseline, Max” value [1] was −16.7, −16.7 minutes and the “Average duration of weekly symptomatic RP attacks, Change from Baseline, Min” value [1] was −16.7, −16.7 minutes. For the same compound, the “Average duration of weekly symptomatic RP attacks, Change from Baseline, Q1” value [1] was −16.74, −16.74 minutes, the “Average duration of weekly symptomatic RP attacks, Percent Change from Baseline, Max” value [1] was −34.6, −34.6% and the “Average Duration of weekly symptomatic RP attacks” value [2] was 3.0 min. For the same compound, the “Average Duration of weekly symptomatic RP attacks, Max” value [2] was 30.5 min, the “Average Duration of weekly symptomatic RP attacks, Q1” value [2] was 3.00 min and the “Average Duration of weekly symptomatic RP attacks, Q3” value [2] was 30.45 min. The “Average duration of weekly symptomatic RP attacks, Change from Baseline” value [2] was -10.3 min, the “Average duration of weekly symptomatic RP attacks, Change from Baseline, Max” value [2] was 4.1 min and the “Average duration of weekly symptomatic RP attacks, Change from Baseline, Mean” value [2] was -3.13 min. The “Average duration of weekly symptomatic RP attacks, Change from Baseline, Median” value [2] was -3.13 min, the “Average duration of weekly symptomatic RP attacks, Change from Baseline, Q1” value [2] was -10.33 min and the “Average duration of weekly symptomatic RP attacks, Change from Baseline, Q3” value [2] was 4.07 min. For the same compound, the “Average duration of weekly symptomatic RP attacks, Percent Change from Baseline, Max” value [2] was 15.4%, the “Average duration of weekly symptomatic RP attacks, Percent Change from Baseline, Mean” value [2] was −31.05% and the “Average duration of weekly symptomatic RP attacks, Percent Change from Baseline, Median” value [2] was −31.05%. For the same compound, the “Average duration of weekly symptomatic RP attacks, Percent Change from Baseline, Min” value [2] was −77.5%, the “Average duration of weekly symptomatic RP attacks, Percent Change from Baseline, Q1” value [2] was −77.50% and the “Average duration of weekly symptomatic RP attacks, Percent Change from Baseline, Q3” value [2] was 15.41%. The “Average Duration of weekly symptomatic RP attacks” value [3] was 3.0 min, the “Average Duration of weekly symptomatic RP attacks, Max” value [3] was 31.6 min and the “Average Duration of weekly symptomatic RP attacks, Q1” value [3] was 3.00 min. For the same compound, the “Average duration of weekly symptomatic RP attacks, Change from Baseline” value [3] was -16.7 min, the “Average duration of weekly symptomatic RP attacks, Change from Baseline, Max” value [3] was 4.1 min and the “Average duration of weekly symptomatic RP attacks, Change from Baseline, Mean” value [3] was -7.67 min. The “Average duration of weekly symptomatic RP attacks, Change from Baseline, Q1” value [3] was -16.74 min, the “Average duration of weekly symptomatic RP attacks, Change from Baseline, Q3” value [3] was 4.07 min and the “Average duration of weekly symptomatic RP attacks, Percent Change from Baseline, Max” value [3] was 15.4%. For the same compound, the “Average duration of weekly symptomatic RP attacks, Percent Change from Baseline, Mean” value [3] was −32.23%, the “Average duration of weekly symptomatic RP attacks, Percent Change from Baseline, Median” value [3] was −34.60% and the “Average duration of weekly symptomatic RP attacks, Percent Change from Baseline, Min” value [3] was −77.5%. The “Average duration of weekly symptomatic RP attacks, Percent Change from Baseline, Q1” value [3] was −77.50%, the “Average duration of weekly symptomatic RP attacks, Percent Change from Baseline, Q3” value [3] was 15.41% and the “Average duration of weekly symptomatic RP attacks, Baseline, Max” value [4] was 48.4, 48.4 minutes. The “Average duration of weekly symptomatic RP attacks, Baseline, Mean” value [4] was 48.38 min, the “Average duration of weekly symptomatic RP attacks, Baseline, Median” value [4] was 48.38 min and the “Average duration of weekly symptomatic RP attacks, Baseline, Min” value [4] was 48.4, 48.4 minutes. For the same compound, the “Average duration of weekly symptomatic RP attacks, Baseline, Q1” value [4] was 48.38, 48.38 minutes, the “Average duration of weekly symptomatic RP attacks, Baseline, Q3” value [4] was 48.38, 48.38 minutes and the “Average duration of weekly symptomatic RP attacks, Baseline” value [5] was 13.3 min. For the same compound, the “Average duration of weekly symptomatic RP attacks, Baseline, Max” value [5] was 26.4 min, the “Average duration of weekly symptomatic RP attacks, Baseline, Mean” value [5] was 19.86 min and the “Average duration of weekly symptomatic RP attacks, Baseline, Median” value [5] was 19.86 min. For the same compound, the “Average duration of weekly symptomatic RP attacks, Baseline, Q1” value [5] was 13.33 min, the “Average duration of weekly symptomatic RP attacks, Baseline, Q3” value [5] was 26.39 min and the “Average duration of weekly symptomatic RP attacks, Baseline” value [6] was 13.3 min. For the same compound, the “Average duration of weekly symptomatic RP attacks, Baseline, Max” value [6] was 48.4 min, the “Average duration of weekly symptomatic RP attacks, Baseline, Mean” value [6] was 29.37 min and the “Average duration of weekly symptomatic RP attacks, Baseline, Median” value [6] was 26.39 min. For the same compound, the “Average duration of weekly symptomatic RP attacks, Baseline, Q1” value [6] was 13.33 min, the “Average duration of weekly symptomatic RP attacks, Baseline, Q3” value [6] was 48.38 min and the “Average Duration of weekly symptomatic RP attacks, Max” value [7] was 31.6, 31.6 minutes. The “Average Duration of weekly symptomatic RP attacks, Min” value [7] was 31.6, 31.6 minutes, the “Average duration of weekly symptomatic RP attacks, Change from Baseline, Max” value [7] was −16.7, −16.7 minutes and the “Average duration of weekly symptomatic RP attacks, Change from Baseline, Q1” value [7] was −16.74, −16.74 minutes. The “Average duration of weekly symptomatic RP attacks, Change from Baseline, Q3” value [7] was −16.74, −16.74 minutes, the “Average duration of weekly symptomatic RP attacks, Percent Change from Baseline, Max” value [7] was −34.6, −34.6% and the “Average duration of weekly symptomatic RP attacks, Percent Change from Baseline, Min” value [7] was −34.6, −34.6%. For the same compound, the “Average duration of weekly symptomatic RP attacks, Percent Change from Baseline, Q3” value [7] was −34.60, −34.60%.
